Assays:
IL-10 = IL-10 levels in human PBMCs with B7-inducing cytokines; assay type: cell-based
Source text: (§1) The differential effect by ribavirin on B7-1 and B7-2 expression as observed in the two mouse strains was examined in human peripheral blood mononuclear cells (PBMCs). Here we used three cytokines, IFNα, IFNβ, and TNFα to induce B7-1 and B7-2 expression. […] Two distinct outcomes were observed.

B7-1 [1] = experiment: B7-1 expression by FACS in IFNα-treated splenocytes from unstimulated mice; assay type: cell-based, mouse; details: C57BL/6 splenocytes, with IFNα, FIG. 6 bottom panel
Source text: (§2) We determined the levels of […] and B7-2 by FACS analysis from IFNα-treated splenocytes from unstimulated BALB/c and C57B6 mice in order to determine whether the effect of ribavirin on the functional role of B7-1 and […] was a) inducible in resting, unstimulated lymphocytes, b) required the action of a B7 inducer such as IFNα, or c) elicited the same affects on the two mouse strains upon replacing antigen stimulation with a B7 inducer. […] In contrast, in C57BL/6 splenocytes (bottom panel), IFNα-induced B7-1 expression was enhanced by ribavirin but B7-2 expression was unaffected.

B7-2 [2] = experiment: B7-2 expression by FACS in IFNα-treated splenocytes from unstimulated mice; assay type: cell-based, mouse; details: with IFNα
Source text: as §2

BALB/c and C57BL/6 mice = experiment: Contact hypersensitivity (CHS) ear response to DNFB in mice; assay type: in vivo, mouse; details: 0.5 mg/kg i.p. at challenge, 24 hours after challenge, FIG. 4
Method: The functional effect of this differential effect on B7-1 and B7-2 mediated by RIB was examined in an in vivo murine model of contact hypersensitivity, and a B7-2 dependent immune response (Eur. J. Immunol, 1996. 26: 880-885). Briefly, animals were primed with 2,4-dinitro-1-fluorobenzene (DNFB) (0.3%) epicutaneously on the abdomen and challenged 6 days later on each ear with 0.12% DNFB. Ribavirin-treated animals were injected intraperitoneally at the time of challenge with an optimal dose of 0.5 mg/kg in 50 μl PBS. Ear measurements were taken before challenge and 24 hours after challenge. Response to DNFB was expressed as the difference between the two ear measurements. […] Ear responses in BALB/c mice were augmented following ribavirin (RIB) treatment but were impaired in ribavirin-treated C57BL/6 mice.

B7-2 [3] = experiment: B7-2 expression by FACS in lymph node cells from DNFB-primed mice, in vitro anti-αβ TCR challenge; assay type: cell-based, mouse; details: BALB/c lymph node cells, ribavirin 5 μM, FIG. 3 top panel
Method: (§3) The effect of ribavirin on B7-1 expression and B7-2 expression, at the time of challenge, in lymph node cells isolated from Ag-primed BALBc and C57BL/6 mice was examined. Mice were primed epicutaneously with dinitrofluorobenzene (DNFB) 6 days prior to concomitant ribavirin treatment (5 μM) and in vitro challenge using an immobilized anti-αβ TCR antibody. Unexpectedly, we observed opposing effects of ribavirin on DNFB-induced B7-1 expression and B7-2 expression in these two mouse strains.

B7-2 mRNA = B7-2 mRNA (RT-PCR/Southern) in lymph node cells of ribavirin-treated CHS mice; assay type: in vivo, mouse; details: FIG. 5
Method: (§4) To determine the effect of ribavirin on the functional role of B7-1 and B7-2 on contact hypersensitivity (CHS) responses, we measured B7-1 and B7-2 mRNA levels in RNA isolated from the lymph node cells of the animals used in the above CHS experiments. Following RT-PCR with specific primers, electrophoresis and Southern blotting, PCR products were analyzed by hybridization with 32P-labeled specific probes. […] In contrast, in C57BL/6 mice, B7-1 mRNA expression was enhanced by ribavirin, but B7-2 mRNA expression was unaffected.

TNFα = TNFα levels in human PBMCs with B7-inducing cytokines; assay type: cell-based
Source text: as §1

B7-2 [4] = experiment: B7-2 mRNA (RT-PCR) in human PBMCs with B7-inducing cytokines; assay type: cell-based
Source text: as §1

B7-1 mRNA = B7-1 mRNA (RT-PCR/Southern) in lymph node cells of ribavirin-treated CHS mice; assay type: in vivo, mouse; details: FIG. 5
Method: as §4

B7-1 [5] = experiment: B7-1 expression by FACS in lymph node cells from DNFB-primed mice, in vitro anti-αβ TCR challenge; assay type: cell-based, mouse; details: C57BL/6 lymph node cells, ribavirin 5 μM, FIG. 3 bottom panel
Method: as §3

B7-1 [6] = experiment: B7-1 mRNA (RT-PCR) in human PBMCs with B7-inducing cytokines; assay type: cell-based
Source text: as §1

[7] = 24 hour incubation with B7-inducing cytokines, FIG. 7 right hand panel (B)
[8] = 24 hour incubation with IFNα, IFNβ or TNFα, FIG. 7 left panel (A)
[9] = BALB/c mice of the CHS experiment
[10] = C57BL/6 mice of the CHS experiment

For NC(=O)c1ncn([C@@H]2O[C@H](CO)[C@@H](O)[C@H]2O)n1 [ribavirin, 1-β-D-Ribofuranosyl-1,2,4-Triazole-3-Carboxamide], the IL-10 levels (IL-10; [7]) was “dropped”, the IL-10 (IL-10; [8]) was “concomitant increase” and the “IFNα-induced B7-1 expression” value (B7-1 [1]) was “enhanced”. For the same compound, the “IFNα-induced B7-2 expression” value (B7-2 [2]; BALB/c splenocytes, FIG. 6 top panel) was “augmented”, the “IFNα-induced B7-2 expression” value (B7-2 [2]; C57BL/6 splenocytes, FIG. 6 bottom panel) was “unaffected” and the “Inflammatory ear response to DNFB” value (BALB/c and C57BL/6 mice; BALB/c mice) was “augmented”. The “Inflammatory ear response to DNFB” value (BALB/c and C57BL/6 mice; C57BL/6 mice) was “impaired”, the “B7-2 expression (mean channel fluorescence)” value (B7-2 [3]) was “enhanced B7-2 expression” and the “B7-2 mRNA expression in lymph node cells” value (B7-2 mRNA; [9]) was “augmented”. For the same compound, the “B7-2 mRNA expression in lymph node cells” value (B7-2 mRNA; [10]) was “unaffected”, the TNFα levels (TNFα; [7]) was “increased” and the TNFα (TNFα; [8]) was “concomitant decrease”. The B7-2 expression (B7-2 [4]; [7]) was “increased B7-2 expression”, the B7-2 expression (B7-2 [4]; [8]) was “decreased” and the “B7-1 mRNA expression in lymph node cells” value (B7-1 mRNA; [9]) was “unaffected”. The “B7-1 mRNA expression in lymph node cells” value (B7-1 mRNA; [10]) was “enhanced”, the “B7-1 expression (mean channel fluorescence)” value (B7-1 [5]) was “enhanced B7-1 expression” and the B7-1 expression (B7-1 [6]; [7]) was “decreased B7-1 expression”. The “B7-1 mRNA expression” value (B7-1 [6]; [8]) was “increased”.

Reference: patent US20020187945A1, “Modulation of immune response by ribavirin” (priority 1999, published 2002)
